Molecular target: T1, Avian myoblastosis virus polyprotein II (Avian myeloblastosis virus) (UniProt Q86831)
T1 sequence (whole entry): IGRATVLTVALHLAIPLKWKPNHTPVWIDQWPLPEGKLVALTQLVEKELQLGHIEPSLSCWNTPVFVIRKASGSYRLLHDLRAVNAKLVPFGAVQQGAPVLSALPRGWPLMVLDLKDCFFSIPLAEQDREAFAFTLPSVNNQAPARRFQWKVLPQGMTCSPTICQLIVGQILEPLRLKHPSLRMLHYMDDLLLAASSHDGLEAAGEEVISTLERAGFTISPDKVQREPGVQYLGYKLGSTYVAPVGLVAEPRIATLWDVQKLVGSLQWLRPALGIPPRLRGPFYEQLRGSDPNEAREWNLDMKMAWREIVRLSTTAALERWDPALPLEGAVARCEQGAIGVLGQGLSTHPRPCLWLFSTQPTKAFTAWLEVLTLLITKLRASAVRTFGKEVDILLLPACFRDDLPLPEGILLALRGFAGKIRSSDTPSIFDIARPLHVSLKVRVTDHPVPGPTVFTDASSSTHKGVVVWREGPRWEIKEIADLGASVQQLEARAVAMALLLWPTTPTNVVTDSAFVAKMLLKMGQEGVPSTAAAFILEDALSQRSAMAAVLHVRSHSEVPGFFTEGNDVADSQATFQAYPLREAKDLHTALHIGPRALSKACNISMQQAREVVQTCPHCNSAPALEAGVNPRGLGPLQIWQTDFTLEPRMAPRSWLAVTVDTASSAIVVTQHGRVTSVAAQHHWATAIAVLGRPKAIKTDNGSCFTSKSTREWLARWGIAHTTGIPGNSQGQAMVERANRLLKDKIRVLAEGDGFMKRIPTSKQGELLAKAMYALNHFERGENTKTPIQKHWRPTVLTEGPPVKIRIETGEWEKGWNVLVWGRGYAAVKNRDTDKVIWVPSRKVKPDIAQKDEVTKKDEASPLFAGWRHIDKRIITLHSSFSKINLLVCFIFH
Assay: Inhibition of Avian myeloblastosis virus reverse transcriptase
Design: concentration or dose not given beside the values
Settings: concentration not given here

Compound | inhibition [%]
CC(=O)Oc1ccc(-c2cc(=O)c3c(OC(C)=O)cc(OC(C)=O)cc3o2)cc1 | 24.7
COc1cc2oc(-c3ccc(O)c(O)c3)cc(=O)c2c(O)c1O | 91.4
CC(C)Oc1ccc(-c2cc(=O)c3c(O)cc(O)cc3o2)cc1 | 55.4
COc1cc2oc(-c3ccccc3)cc(=O)c2c(O)c1OC | 45.9
COc1cc(O)c2c(=O)c(O)c(-c3ccc(O)c(O)c3)oc2c1 | 50.8
CC(C)Oc1ccc(-c2cc(=O)c3c(O)cc(OC(C)C)cc3o2)cc1 | 23.6
COc1c(OC(C)C)cc(O)c2c(=O)cc(-c3ccc(O)cc3)oc12 | 15.4
COc1cc2oc(-c3ccccc3)cc(=O)c2c(OC)c1OC | 29.8
COc1ccc(-c2cc(=O)c3c(O)cc(O)cc3o2)cc1 | 48
O=c1c(O)c(-c2ccc(O)cc2O)oc2cc(O)cc(O)c12 | 40.5
COc1c(OC(C)=O)cc2oc(-c3ccccc3)cc(=O)c2c1O | 18.3
COc1c(O)cc(O)c2c(=O)cc(-c3ccccc3)oc12 | 36.8
COc1ccc(-c2cc(=O)c3c(OC)cc(OC)cc3o2)cc1 | 45.6
COc1ccc(-c2cc(=O)c3c(O)c(O)c(OC)c(O)c3o2)cc1 | 39.1
O=c1cc(-c2ccccc2)oc2cc(OCc3ccccc3)cc(O)c12 | 34.9
O=c1cc(-c2ccccc2O)oc2c(O)c(O)cc(O)c12 | 67.7
CC(C)Oc1ccc(-c2cc(=O)c3c(O)c(O)c(OC(C)C)cc3o2)cc1 | 18
COc1ccc(-c2cc(=O)c3c(O)cc(OC(C)C)c(OC)c3o2)cc1 | 12
O=c1cc(-c2ccccc2)oc2cc(O)c(O)c(O)c12 | 95
O=c1c(O)c(-c2ccc(O)c(O)c2)oc2cc(O)cc(O)c12 | 41.4
COc1ccc(-c2cc(=O)c3c(O)cc(OC)cc3o2)cc1 | 54.8
CC(C)Oc1cc(OC(C)C)c2c(=O)cc(-c3ccccc3)oc2c1 | 24.2
O=c1cc(-c2ccc(O)cc2)oc2c(O)c(O)cc(O)c12 | 22
O=c1c(O)c(-c2ccc(O)c(O)c2)oc2cc(O)c(O)c(O)c12 | 98.4
COc1c(O)cc(O)c2c(=O)cc(-c3ccccc3O)oc12 | 8.5
COc1c(O)cc2oc(-c3ccc(O)cc3)cc(=O)c2c1O | 23.3
O=c1cc(-c2ccccc2)oc2c(O)c(OCc3ccccc3)cc(O)c12 | 19
O=c1cc(-c2ccc(O)cc2)oc2cc(O)c(O)c(O)c12 | 99.4

Compound | inhibition [%]
COc1cc(O)c2c(=O)c(OC)c(-c3ccc(OC)c(OC)c3)oc2c1 | 9.2
CC(C)Oc1ccc(-c2cc(=O)c3c(O)cc(O)c(O)c3o2)cc1OC(C)C | 17.6
COc1cc(O)c2c(=O)cc(-c3ccccc3OC(C)=O)oc2c1OC | 17
COc1cc(O)c2c(=O)c(O)c(-c3ccc(OC)c(O)c3)oc2c1 | 68.1
O=c1c(O)c(-c2ccc(O)cc2)oc2cc(O)c(O)c(O)c12 | 97.2
COc1cc(O)c2c(=O)cc(-c3ccccc3)oc2c1OC | 9.8
O=c1c(O)c(-c2ccc(O)c(O)c2)oc2c(O)c(O)cc(O)c12 | 85.1
COc1cc(-c2oc3cc(O)ccc3c(=O)c2O)ccc1O | 52.7
O=c1cc(-c2ccc(O)c(O)c2)oc2c(O)c(O)cc(O)c12 | 31.3
CC(C)Oc1ccc(-c2cc(=O)c3c(O)c(O)c(OC(C)C)c(O)c3o2)cc1 | 46.2
O=c1cc(-c2ccc(O)c(O)c2)oc2cc(O)c(O)c(O)c12 | 91.7
O=c1c(O)c(-c2ccccc2O)oc2cc(O)cc(O)c12 | 28
O=c1c(O)c(-c2c(O)cccc2O)oc2cc(O)cc(O)c12 | 21.3
COc1c(O)cc2oc(-c3ccccc3)cc(=O)c2c1OC | 32.7
CC(=O)Oc1cc2oc(-c3ccccc3)cc(=O)c2c(OC(C)=O)c1OC(C)=O | 71.4
O=c1c(O)c(-c2ccc(O)cc2)oc2cc(O)cc(O)c12 | 72.6
O=c1c(O)c(-c2cc(O)c(O)c(O)c2)oc2cc(O)ccc12 | 87.5
COc1cc2oc(-c3ccc(O)cc3)cc(=O)c2c(O)c1OC | 50.9
O=c1cc(-c2ccccc2)oc2c(O)c(O)cc(O)c12 | 36.9
O=c1c(O)c(-c2cc(O)c(O)c(O)c2)oc2cc(O)cc(O)c12 | 82.5
COc1ccc(-c2oc3cc(O)cc(O)c3c(=O)c2O)cc1O | 59.7
COc1cccc(O)c1-c1cc(=O)c2c(O)c(OC)c(OC)c(OC)c2o1 | 18
COc1ccc(-c2cc(=O)c3ccc(O)cc3o2)cc1 | 13.6
COc1cccc(OC)c1-c1cc(=O)c2c(O)c(OC)c(OC)c(OC)c2o1 | 5.4
COc1ccc(-c2oc3cc(O)cc(O)c3c(=O)c2O)cc1 | 64.6
O=c1c(O)c(-c2ccccc2)oc2cc(O)cc(O)c12 | 42.1
CC(C)Oc1ccc(-c2cc(=O)c3c(O)cc(O)cc3o2)cc1OC(C)C | 12.2
